Results published in patent US20230072683A1, “PYRIDO-PYRIMIDIN DERIVATIVES AND PHARMACEUTICAL COMPOSITION, FOR USE IN PREVENTING OR TREATING PI3 KINASE RELATED DISEASES, COMPRISING SAME AS ACTIVE INGREDIENT” (BORYUNG PHARMACEUTICAL CO., LTD, priority 2019, published 2023).

Columns and labels:
DNA-PK(h) = DNA-PK(h) (Homo sapiens, UniProt P78527); assay: Evaluation of inhibitory activity against DNA-PK (HTRF kinase assay, GST-cMyc-p53 substrate); type: biochemical; details: for inhibition at 0.01 µM: compound concentration 0.01 μM, read-out: EXP_VALUE(% Inhibition) DNA-PK(h) 0.01 μM; for inhibition at 0.1 µM: compound concentration 0.1 μM, read-out: EXP_VALUE(% Inhibition) DNA-PK(h) 0.1 μM
Procedure, shortened: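 p53 Ser15 phosphorylation by human DNA-PK was measured by time-resolved FRET ratio (665/620 nm ×10000) using Eu-labelled anti-phospho-Ser15 and d2 anti-GST antibodies. Substrate GST-cMyc-p53 at 50 μM; Mg/ATP-initiated, 30 min at room temperature, EDTA stop.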

[1] = biological target: PI3K-δ (PI3K(p1108/p857) (h)) (Homo sapiens, UniProt O00329); assay: Evaluation of inhibitory activity against PI3K-δ (HTRF kinase assay); type: biochemical; details: for inhibition at 0.01 µM: compound concentration 0.01 μM, read-out: EXP_VALUE(% Inhibition) PI3K-δ 0.01 μM; for inhibition at 0.1 µM: compound concentration 0.1 μM, read-out: EXP_VALUE(% Inhibition) PI3K-δ 0.1 μM
Procedure, shortened: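 HTRF read-out (665/620 nm ratio ×10000) used Eu-labelled anti-GST, GST-tagged GRP1 PH domain and streptavidin-allophycocyanin after EDTA/PIP3 stop.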

PI3K-δ (PI3K(p1108/p857) (h)), sequence (O00329 whole entry, the tested form may be a part): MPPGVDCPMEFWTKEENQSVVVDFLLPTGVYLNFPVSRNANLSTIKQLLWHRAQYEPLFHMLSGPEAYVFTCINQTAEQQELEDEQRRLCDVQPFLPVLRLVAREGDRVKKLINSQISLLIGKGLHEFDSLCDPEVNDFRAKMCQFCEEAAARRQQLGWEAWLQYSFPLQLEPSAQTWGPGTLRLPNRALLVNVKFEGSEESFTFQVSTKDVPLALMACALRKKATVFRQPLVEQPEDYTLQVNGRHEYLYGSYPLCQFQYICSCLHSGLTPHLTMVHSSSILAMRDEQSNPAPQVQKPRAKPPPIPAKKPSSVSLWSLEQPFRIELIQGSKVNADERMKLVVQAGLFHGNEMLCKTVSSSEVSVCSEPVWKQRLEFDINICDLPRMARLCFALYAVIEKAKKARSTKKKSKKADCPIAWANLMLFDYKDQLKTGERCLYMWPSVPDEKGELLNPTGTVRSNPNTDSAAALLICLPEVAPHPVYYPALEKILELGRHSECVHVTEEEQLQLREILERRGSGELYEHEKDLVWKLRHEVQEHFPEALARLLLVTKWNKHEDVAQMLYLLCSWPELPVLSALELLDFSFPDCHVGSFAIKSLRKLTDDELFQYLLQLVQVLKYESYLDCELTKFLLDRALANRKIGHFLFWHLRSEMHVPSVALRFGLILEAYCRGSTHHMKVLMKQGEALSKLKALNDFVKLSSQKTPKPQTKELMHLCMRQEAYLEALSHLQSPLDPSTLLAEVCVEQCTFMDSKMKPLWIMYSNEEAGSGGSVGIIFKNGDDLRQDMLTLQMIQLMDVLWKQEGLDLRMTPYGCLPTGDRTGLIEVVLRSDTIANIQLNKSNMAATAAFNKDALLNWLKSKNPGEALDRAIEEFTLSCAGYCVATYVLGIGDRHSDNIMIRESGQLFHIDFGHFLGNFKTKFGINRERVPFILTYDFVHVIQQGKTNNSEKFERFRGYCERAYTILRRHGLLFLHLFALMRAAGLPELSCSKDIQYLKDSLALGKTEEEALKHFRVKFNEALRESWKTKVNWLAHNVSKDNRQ
PI3K-δ (PI3K(p1108/p857) (h)), sequence (P27986 whole entry partner, the tested form may be a part): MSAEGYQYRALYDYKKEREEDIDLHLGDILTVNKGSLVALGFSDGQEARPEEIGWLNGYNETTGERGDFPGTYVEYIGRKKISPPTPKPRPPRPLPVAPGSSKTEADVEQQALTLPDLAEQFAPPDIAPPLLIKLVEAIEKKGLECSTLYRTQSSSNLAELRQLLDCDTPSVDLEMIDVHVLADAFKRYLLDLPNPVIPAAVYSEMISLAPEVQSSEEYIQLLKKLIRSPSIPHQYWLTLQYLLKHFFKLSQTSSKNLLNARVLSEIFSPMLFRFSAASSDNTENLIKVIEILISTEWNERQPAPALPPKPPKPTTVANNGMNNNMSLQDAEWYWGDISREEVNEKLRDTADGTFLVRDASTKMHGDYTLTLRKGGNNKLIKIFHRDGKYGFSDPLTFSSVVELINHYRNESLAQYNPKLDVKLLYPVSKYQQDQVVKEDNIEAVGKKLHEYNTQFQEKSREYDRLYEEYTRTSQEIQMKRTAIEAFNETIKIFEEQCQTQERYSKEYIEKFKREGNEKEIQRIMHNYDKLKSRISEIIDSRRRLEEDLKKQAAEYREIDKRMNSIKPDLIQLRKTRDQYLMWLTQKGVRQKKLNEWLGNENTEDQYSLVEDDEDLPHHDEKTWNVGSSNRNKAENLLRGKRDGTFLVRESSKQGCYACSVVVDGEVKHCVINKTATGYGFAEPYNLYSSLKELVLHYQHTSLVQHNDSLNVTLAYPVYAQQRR

Row | inhibition at 0.01 µM (DNA-PK(h)) | inhibition at 0.1 µM (DNA-PK(h)) | inhibition at 0.01 µM [1] | inhibition at 0.1 µM [1] | SMILES
1 | 17% | 62% | 46% | 79% | C[C@H](Nc1ncnc2[nH]ccc(=O)c12)c1c(Cl)c2cccc(N3CCN(c4ccccn4)CC3)c2c(=O)n1-c1ccccc1 [Example 333, (S)-4-((1-(4-chloro-1-oxo-2-phenyl-8-(4-(pyridin-2-yl)piperazin-1-yl)-1,2-dihydroisoquinolin-3-yl)ethyl)amino)pyrido[2,3-d]pyrimidin-5(8H)-one]
2 | 10% | 27% | 9% | 49% | C[C@H](Nc1ncnc2[nH]ccc(=O)c12)c1c(Cl)c2cccc(N(C)Cc3ccc4ccccc4c3)c2c(=O)n1-c1ccccc1 [Example 334, (S)-4-((1-(4-chloro-8-(methyl(naphthalen-2-ylmethyl)amino)-1-oxo-2-phenyl-1,2-dihydroisoquinolin-3-yl)ethyl)amino)pyrido[2,3-d]pyrimidin-5(8H)-one]
3 | 13% | 52% | 31% | 95% | C[C@H](Nc1ncnc2[nH]ccc(=O)c12)c1c(Cl)c2cccc(NCCc3ccc(Cl)cc3)c2c(=O)n1-c1ccccc1 [Example 335, (S)-4-((1-(4-chloro-8-((4-chlorophenethyl)amino)-1-oxo-2-phenyl-1,2-dihydroisoquinolin-3-yl)ethyl)amino)pyrido[2,3-d]pyrimidin-5(8H)-one]
4 | 7% | 14% | 6% | 19% | C[C@H](Nc1ncnc2[nH]ccc(=O)c12)c1c(Cl)c2cccc(N3CCC(c4ccccc4)CC3)c2c(=O)n1-c1ccccc1 [Example 336, (S)-4-((1-(4-chloro-1-oxo-2-phenyl-8-(4-phenylpiperidin-1-yl)-1,2-dihydroisoquinolin-3-yl)ethyl)amino)pyrido[2,3-d]pyrimidin-5(8H)-one]
5 | 13% | 63% | 27% | 70% | C[C@H](Nc1ncnc2[nH]ccc(=O)c12)c1c(Cl)c2cccc(N3CCC[C@H]3C(N)=O)c2c(=O)n1-c1ccccc1 [Example 337, (S)-1-(4-chloro-1-oxo-3-((S)-1-((5-oxo-5,8-dihydropyrido[2,3-d]pyrimidin-4-yl)amino)ethyl)-2-phenyl-1,2-dihydroisoquinolin-8-yl) pyrrolidine-2-carboxamide]
6 | -2% | 35% | 3% | 19% | C[C@H](Nc1ncnc2[nH]ccc(=O)c12)c1c(Cl)c2cccc(N3CCC[C@H]3CN3CCCC3)c2c(=O)n1-c1ccccc1 [Example 338, 4-(((S)-1-(4-chloro-1-oxo-2-phenyl-8-((S)-2-(pyrrolidin-1-ylmethyl)pyrrolidin-1-yl)-1,2-dihydroisoquinolin-3-yl)ethyl)amino)pyrido[2,3-d]pyrimidin-5(8H)-one]
7 | 8% | 52% | 69% | 20% | C[C@H](Nc1ncnc2[nH]ccc(=O)c12)c1c(Cl)c2cccc(N3CCCC3O)c2c(=O)n1-c1ccccc1 (stereo partly drawn) [Example 339, 4-(((1S)-1-(4-chloro-8-(2-hydroxypyrrolidin-1-yl)-1-oxo-2-phenyl-1,2-dihydroisoquinolin-3-yl)ethyl)amino)pyrido[2,3-d]pyrimidin-5(8H)-one]
8 | 21% | 67% | 43% | 91% | C[C@H](Nc1ncnc2[nH]ccc(=O)c12)c1c(Cl)c2cccc(N3Cc4ccccc4C3)c2c(=O)n1-c1ccccc1 [Example 340, (S)-4-((1-(4-chloro-8-(isoindolin-2-yl)-1-oxo-2-phenyl-1,2-dihydroisoquinolin-3-yl)ethyl)amino)pyrido[2,3-d]pyrimidin-5(8H)-one]
9 | 13% | 56% | 62% | 91% | C[C@H](Nc1ncnc2[nH]ccc(=O)c12)c1c(Cl)c2cccc(N3CCc4ccccc43)c2c(=O)n1-c1ccccc1 [Example 341, (S)-4-((1-(4-chloro-8-(indolin-1-yl)-1-oxo-2-phenyl-1,2-dihydroisoquinolin-3-yl)ethyl)amino)pyrido[2,3-d]pyrimidin-5(8H)-one]
10 | 9% | 58% | 15% | 45% | C[C@H](Nc1ncnc2[nH]ccc(=O)c12)c1c(Cl)c2cccc(N3CC4CCCC4C3)c2c(=O)n1-c1ccccc1 (stereo partly drawn) [Example 342, 4-(((1S)-1-(4-chloro-8-(hexahydrocyclopenta[c]pyrrol-2 (1H)-yl)-1-oxo-2-phenyl-1,2-dihydroisoquinolin-3-yl)ethyl)amino)pyrido[2,3-d]pyrimidin-5(8H)-one]
11 | -1% | – | 8% | – | C[C@H](Nc1ncnc2[nH]ccc(=O)c12)c1c(Cl)c2cccc(Nc3ccccc3)c2c(=O)n1-c1ccccc1 [Example 343, (S)-4-((1-(4-chloro-1-oxo-2-phenyl-8-(phenylamino)-1,2-dihydroisoquinolin-3-yl)ethyl)amino)pyrido[2,3-d]pyrimidin-5(8H)-one]
12 | -7% | – | 13% | – | C[C@H](Nc1ncnc2[nH]ccc(=O)c12)c1c(Cl)c2cccc(Nc3ccc(F)cc3)c2c(=O)n1-c1ccccc1 [Example 344, (S)-4-((1-(4-chloro-8-((4-fluorophenyl)amino)-1-oxo-2-phenyl-1,2-dihydroisoquinolin-3-yl)ethyl)amino)pyrido[2,3-d]pyrimidin-5(8H)-one]
13 | 0% | – | 10% | – | COc1ccc(Nc2cccc3c(Cl)c([C@H](C)Nc4ncnc5[nH]ccc(=O)c45)n(-c4ccccc4)c(=O)c23)cc1 [Example 345, (S)-4-((1-(4-chloro-8-((4-methoxyphenyl)amino)-1-oxo-2-phenyl-1,2-dihydroisoquinolin-3-yl)ethyl)amino)pyrido[2,3-d]pyrimidin-5(8H)-one]
14 | 1% | – | 9% | – | C[C@H](Nc1ncnc2[nH]ccc(=O)c12)c1c(Cl)c2cccc(Nc3ccc(C(F)(F)F)cc3)c2c(=O)n1-c1ccccc1 [Example 346, (S)-4-((1-(4-chloro-1-oxo-2-phenyl-8-((4-(trifluoromethyl)phenyl)amino)-1,2-dihydroisoquinolin-3-yl)ethyl)amino)pyrido[2,3-d]pyrimidin-5(8H)-one]
15 | 28% | – | 11% | – | C[C@H](Nc1ncnc2[nH]ccc(=O)c12)c1c(Cl)c2cccc(Nc3cccnc3)c2c(=O)n1-c1ccccc1 [Example 347, (S)-4-((1-(4-chloro-1-oxo-2-phenyl-8-(pyridin-3-ylamino)-1,2-dihydroisoquinolin-3-yl)ethyl)amino)pyrido[2,3-d]pyrimidin-5(8H)-one]
16 | -1% | – | 5% | – | C[C@H](Nc1ncnc2[nH]ccc(=O)c12)c1c(Cl)c2cccc(Nc3ccccn3)c2c(=O)n1-c1ccccc1 [Example 348, (S)-4-((1-(4-chloro-1-oxo-2-phenyl-8-(pyridin-2-ylamino)-1,2-dihydroisoquinolin-3-yl)ethyl)amino)pyrido[2,3-d]pyrimidin-5(8H)-one]
17 | 15% | – | 72% | – | C[C@H](Nc1ncnc2[nH]ccc(=O)c12)c1c(Cl)c2cccc(N(C)c3ccccn3)c2c(=O)n1-c1ccccc1 [Example 349, (S)-4-((1-(4-chloro-8-(methyl(pyridin-2-yl)amino)-1-oxo-2-phenyl-1,2-dihydroisoquinolin-3-yl)ethyl)amino)pyrido[2,3-d]pyrimidin-5(8H)-one]
18 | 15% | 55% | 109% | 117% | C[C@H](Nc1ncnc2[nH]ccc(=O)c12)c1c(Cl)c2cccc(/C(N)=N/O)c2c(=O)n1-c1ccccc1 [Example 350, (S,Z)-4-chloro-N′-hydroxy-1-oxo-3-(1-((5-oxo-5,8-dihydropyrido[2,3-d]pyrimidin-4-yl)amino)ethyl)-2-phenyl-1,2-dihydroisoquinoline-8-carboximidamide]
19 | 45% | 89% | 50% | 91% | C[C@H](Nc1ncnc2[nH]ccc(=O)c12)c1c(Cl)c2cccc(-c3ncon3)c2c(=O)n1-c1ccccc1 [Example 351, (S)-4-((1-(4-chloro-8-(1,2,4-oxadiazol-3-yl)-1-oxo-2-phenyl-1,2-dihydroisoquinolin-3-yl)ethyl)amino)pyrido[2,3-d]pyrimidin-5(8H)-one]
20 | 34% | 76% | 27% | 75% | C[C@H](Nc1ncnc2[nH]ccc(=O)c12)c1c(Cl)c2cccc(-c3nnn[nH]3)c2c(=O)n1-c1ccccc1 [Example 352, (S)-4-((1-(4-chloro-1-oxo-2-phenyl-8-(1H-tetrazol-5-yl)-1,2-dihydroisoquinolin-3-yl)ethyl)amino)pyrido[2,3-d]pyrimidin-5(8H)-one]
21 | 19% | 62% | 84% | 94% | C[C@H](Nc1ncnc2[nH]ccc(=O)c12)c1c(Cl)c2cccc(B(O)O)c2c(=O)n1-c1ccccc1 [Example 353, (S)-(4-chloro-1-oxo-3-(1-((5-oxo-5,8-dihydropyrido[2,3-d]pyrimidin-4-yl)amino)ethyl)-2-phenyl-1,2-dihydroisoquinolin-8-yl)boronic acid]
